Source: patent US5407683A (Research Corporation Technologies, Inc., priority 1992, dated 1995)
Values after ≈ are worked out from the molar mass of the structure shown.

What was measured:
Lewis lung tumor = details: cited from earlier work
melanoma = details: cited from earlier work
colon = details: cited from earlier work
[1] = solubilization of taxol in squalane oil; type: physicochemical; details: 4.0 mg taxol in 0.400 ml squalane oil, methanol removed
Protocol: The methanol was then removed with heating and nitrogen blanket at about 60° C. for 10 minutes.

breast = details: cited from earlier work
[2] = cited from earlier work
sarcomas = details: cited from earlier work
[3] = nonemulsified form; cited from earlier work
[4] = thermal stability of taxol; type: physicochemical; details: 130° C.
Protocol: The process steps can in many cases be performed at about room temperature. […] The process steps should be performed to avoid melting or decomposition of the matrix compound, i.e., the process should be performed at temperatures less than about the melting point or decomposition point of the matrix compound, generally about 140° C. or less. […] Thus preferred temperatures for performing the process steps are about 60° C. to about 130° C.

microtubules = details: in vitro; cited from earlier work
leukemia = details: cited from earlier work
[5] = precipitation of taxol from oil solution under vacuum; type: physicochemical; details: bath temperatures less than 50° to 60° C.

For `CC(=O)O[C@H]1C(=O)[C@@]2(C)[C@H]([C@H](OC(=O)c3ccccc3)[C@]3(O)C[C@H](OC(=O)[C@H](O)[C@@H](NC(=O)c4ccccc4)c4ccccc4)C(C)=C1C3(C)C)[C@]1(OC(C)=O)CO[C@@H]1C[C@@H]2O` [Taxol], the “activity against Lewis lung tumor system” value (Lewis lung tumor) is given as “active”, the activity against melanoma (melanoma) is given as “active” and the “activity against colon tumor system” value (colon) is given as “active”. For the same compound, the “solubilization of taxol in squalane oil” value [1] was “completely solubilized”, the “activity against breast tumor system” value (breast) was “active” and the solubility in vehicle ([2]; ethanol:cremophor EL:isotonic saline (5:5:90)) was ≤ 600 µg/mL. The “solubility in most oils” value ([2]; safflower, olive and soybean oil) was 300 to 600 µg/mL, the “solubility in soybean oil” value ([2]; soybean oil) was 300 µg/mL (≈ 351 µM) and the solubility in triacetin ([2]; triacetin) was 30000 µg/mL (≈ 35100 µM). The activity against sarcomas (sarcomas) was “active”, the “degradation in the stomach” value [3] was “degraded in the stomach” and the thermal stability [4] was “stable for at least about two hours”. The “concentrations that stabilize microtubules, thus disrupting normal cell division” value (microtubules) was 0.1 to 10.0 µg/mL, the activity against leukemia (leukemia) was “active” and the “precipitation from the oil solution” value [5] was “tends to precipitate from the oil solution”.
